The record followed here is patent US8680059B2, “Oligopeptide acetate and formulations thereof” (Biotempt B.V., priority 1998, dated 2014).

The assay has as its system RAW 264.7 murine macrophage cell line. Put plainly: Nitrite (NO) production in LPS-stimulated RAW 264.7 macrophages. It is filed as cell-based. The settings on record: co-stimulated with LPS 10 microg/ml, peptide even at 1 pg/ml, 24 hours. The method, then: Cell culture. The RAW 264.7 murine macrophage cell line, obtained from American Type Culture Collection (Manassas, Va., USA), were cultured at 37° C. in 5% CO2 using DMEM containing 10% fetal calf serum (FCS), 50 U/ml penicillin, 50 μg/ml streptomycin, […] Na-pyruvate, 2 mM glutamine and 50 μM 2-mercaptoethanol (Bio Whittaker, Europe). The medium was changed every 2 days.
Nitrite measurements. Nitrite production was measured in the RAW 264.7 macrophage supernatants. The cells (7.5×10^5/ml) were cultured in 48-well plates in […] of culture medium. The cells were stimulated with LPS (10 microg/ml) and/or peptide (1 pg/ml, 1 ng/ml, 1 μg/ml) for 24 hours, then the culture media were collected. Nitrite was measured by adding 100 microl of Griess reagent (Sigma) to 100 microl samples of culture medium. The OD540 was measured using a microplate reader, and the nitrite concentration was calculated by comparison with the OD540 produced using standard solutions of sodium nitrite in the culture medium.

As to “AQGV [tetrapeptide derived from human chorionic gonadotropin, alanine replacement of LQGV]”, the NO production entry is “inhibited the production of NO”.
